From ChEMBL document CHEMBL4732177 (J Med Chem, 2021) come the findings set out here.

Test [1] deals with Neurotensin receptor type 2 (Homo sapiens, UniProt O95665). Nature of the test: Displacement of [125I]Tyr3-neurotensin from human recombinant NTS2 stably expressed in human 1321N1 cell membranes incubated for 60 mins by gamma counter analysis. On the set-up: species or system Cell membrane. For orientation: Loss of bound radioactivity is the signal in a displacement assay; it reports binding, not function.

Test [2] addresses Neurotensin receptor type 1 (Homo sapiens, UniProt P30989). Kind of test: Displacement of [125I]Tyr3-neurotensin from human recombinant NTS1 stably expressed in CHO-K1 cell membranes incubated for 60 mins by gamma counter analysis. On the set-up: species or system Cell membrane.

Bridge positions count the residues as written; N and C are the ends. Square brackets hold non-standard residues; d marks the D form. Peptide text beside a SMILES is read from it. AllylGly = C=CC[C@H](N)C(=O)O Where only a bound is given, the exact number is not on record here.

Chain of Neurotensin receptor type 2 (O95665 whole entry): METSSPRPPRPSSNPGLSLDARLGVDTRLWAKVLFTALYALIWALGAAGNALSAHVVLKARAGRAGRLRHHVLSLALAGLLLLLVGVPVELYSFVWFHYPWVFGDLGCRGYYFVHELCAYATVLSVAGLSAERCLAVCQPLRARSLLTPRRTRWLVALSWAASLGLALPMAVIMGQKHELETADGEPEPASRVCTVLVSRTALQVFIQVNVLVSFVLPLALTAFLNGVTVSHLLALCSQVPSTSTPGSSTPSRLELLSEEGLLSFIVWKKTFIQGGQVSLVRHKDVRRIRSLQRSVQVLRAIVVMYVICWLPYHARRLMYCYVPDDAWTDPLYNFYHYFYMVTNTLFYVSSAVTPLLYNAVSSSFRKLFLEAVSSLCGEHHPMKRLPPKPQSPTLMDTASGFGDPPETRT
Chain of Neurotensin receptor type 1 (P30989 whole entry): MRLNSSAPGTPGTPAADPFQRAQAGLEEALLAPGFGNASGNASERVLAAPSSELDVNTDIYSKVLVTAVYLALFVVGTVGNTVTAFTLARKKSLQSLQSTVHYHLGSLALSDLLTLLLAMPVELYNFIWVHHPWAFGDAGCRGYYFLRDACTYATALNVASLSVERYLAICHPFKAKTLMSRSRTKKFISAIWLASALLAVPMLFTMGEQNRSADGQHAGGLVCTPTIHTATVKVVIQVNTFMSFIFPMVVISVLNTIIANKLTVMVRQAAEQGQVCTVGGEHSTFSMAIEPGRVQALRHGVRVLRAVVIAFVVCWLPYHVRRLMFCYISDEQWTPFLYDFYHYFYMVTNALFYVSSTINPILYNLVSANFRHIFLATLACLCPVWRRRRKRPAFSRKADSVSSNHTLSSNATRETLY

In general, Ki refers to a dissociation constant, usually derived from enzyme kinetics or from competition with a known ligand. For the compound `CC[C@H](C)[C@H](NC(=O)[C@H](Cc1ccc(O)cc1)NC(=O)[C@@H]1CCCN1C(=O)[C@H](CCCNC(=N)N)NC(=O)[C@H](CCCNC(=N)N)NC(=O)[C@@H]1CCCN1C(=O)[C@H](CCCCN)NC(=O)[C@H](CC(N)=O)NC(=O)[C@H](CCC(=O)O)NC(=O)[C@H](Cc1ccc(O)cc1)NC(=O)[C@H](CC(C)C)NC(=O)[C@@H]1CCC(=O)N1)C(=O)N[C@@H](C)C(=O)O`, the Ki in test [1] is 655 nM; in test [2], more than 10000 nM.
Consider `CC[C@H](C)[C@H](NC(=O)[C@H](Cc1ccc(O)cc1)NC(=O)[C@@H]1CCCN1C(=O)[C@@H](C)NC(=O)[C@H](CCCN=C(N)N)NC(=O)[C@@H]1CCCN1C(=O)[C@H](CCCCN)NC(=O)[C@H](CC(N)=O)NC(=O)[C@H](CCC(=O)O)NC(=O)[C@H](Cc1ccc(O)cc1)NC(=O)[C@H](CC(C)C)NC(=O)[C@@H]1CCC(=O)N1)C(=O)N[C@@H](CC(C)C)C(=O)O`, for which the Ki in test [2] was found to be 174 nM.
Regarding `CC[C@H](C)[C@H](NC(=O)[C@H](Cc1ccc(O)cc1)NC(=O)[C@H](C)NC(=O)[C@H](CCCNC(=N)N)NC(=O)[C@H](CCCNC(=N)N)NC(=O)[C@@H]1CCCN1C(=O)[C@H](CCCCN)NC(=O)[C@H](CC(N)=O)NC(=O)[C@H](CCC(=O)O)NC(=O)[C@H](Cc1ccc(O)cc1)NC(=O)[C@H](CC(C)C)NC(=O)[C@@H]1CCC(=O)N1)C(=O)N[C@@H](CC(C)C)C(=O)O`, the values for the Ki in test [1] and in test [2] were 16 nM and 161 nM, respectively.
Regarding `CC[C@H](C)[C@H](NC(=O)[C@H](Cc1ccc(O)cc1)NC(=O)[C@@H]1CCCN1C(=O)[C@H](CCCNC(=N)N)NC(=O)[C@H](C)NC(=O)[C@@H]1CCCN1C(=O)[C@H](CCCCN)NC(=O)[C@H](CC(N)=O)NC(=O)[C@H](CCC(=O)O)NC(=O)[C@H](Cc1ccc(O)cc1)NC(=O)[C@H](CC(C)C)NC(=O)[C@@H]1CCC(=O)N1)C(=O)N[C@@H](CC(C)C)C(=O)O`, the values for the Ki in test [1] and in test [2] were 95 nM and 75 nM, respectively.
The like results for `CC[C@@H](C)[C@H](NC(=O)[C@H](Cc1ccc(O)cc1)NC(=O)[C@@H]1C/C=C\C[C@H](N)C(=O)N[C@@H](CCCCN)C(=O)N[C@@H](CCCCN)C(=O)N1)C(=O)N[C@@H](CC(C)C)C(=O)O` were, in that order, more than 10000 nM and more than 10000 nM.
Turning to `CC(C)C[C@H](NC(=O)[C@H](Cc1ccc(O)cc1)NC(=O)[C@@H]1C/C=C\C[C@@H](N)C(=O)N[C@@H](CCCCN)C(=O)N[C@@H](CCCCN)C(=O)N1)C(=O)O`, the Ki in test [1] is 100 nM; in test [2], more than 100000 nM.
Consider `CC[C@H](C)[C@H](NC(=O)[C@H](Cc1ccc(O)cc1)NC(=O)[C@H](CCCCN)NC(=O)[C@@H]1C/C=C\C[C@H](N)C(=O)N[C@@H](CCCCN)C(=O)N1)C(=O)N[C@@H](CC(C)C)C(=O)O` (H-[AllylGly]K[AllylGly]KYIL-OH; staple (Z) 1-3), for which the Ki was more than 10000 nM in test [1] and more than 100000 nM in test [2].
For the compound `CC[C@H](C)[C@H](NC(=O)[C@H](Cc1ccc(O)cc1)NC(=O)[C@@H]1CCCN1C(=O)[C@H](CCCNC(=N)N)NC(=O)[C@H](CCCNC(=N)N)NC(=O)[C@@H]1CCCN1C(=O)[C@H](CCCCN)NC(=O)[C@H](CC(N)=O)NC(=O)[C@H](CCC(=O)O)NC(=O)[C@H](Cc1ccc(O)cc1)NC(=O)[C@H](CC(C)C)NC(=O)[C@H](C)N)C(=O)N[C@@H](CC(C)C)C(=O)O`, the Ki amounted to 8.7 nM in test [1] and 2 nM in test [2].
Take `CC[C@H](C)[C@H](NC(=O)[C@H](Cc1ccc(O)cc1)NC(=O)[C@@H]1CCCN1C(=O)[C@H](C)NC(=O)[C@H](CCCN=C(N)N)NC(=O)[C@@H]1CCCN1C(=O)[C@H](CCCCN)NC(=O)[C@H](CC(N)=O)NC(=O)[C@H](CCC(=O)O)NC(=O)[C@H](Cc1ccc(O)cc1)NC(=O)[C@H](CC(C)C)NC(=O)[C@@H]1CCC(=O)N1)C(=O)N[C@@H](CC(C)C)C(=O)O`: in test [1], the Ki came out at 10 nM.
`CC[C@@H](C)[C@H](NC(=O)[C@H](CC(C)C)NC(=O)[C@H](Cc1ccc(O)cc1)NC(=O)[C@@H]1C/C=C\C[C@H](N)C(=O)N[C@@H](CCCCN)C(=O)N[C@@H](CCCCN)C(=O)N1)C(=O)O`: the Ki in test [1] is more than 10000 nM; in test [2], more than 100000 nM.
For the compound `CC[C@H](C)[C@H](NC(=O)[C@H](Cc1ccc(O)cc1)NC(=O)[C@@H]1CCCN1C(=O)[C@H](CCCNC(=N)N)NC(=O)[C@H](CCCNC(=N)N)NC(=O)[C@@H]1CCCN1C(=O)[C@H](CCCCN)NC(=O)[C@H](CC(N)=O)NC(=O)[C@H](C)NC(=O)[C@H](Cc1ccc(O)cc1)NC(=O)[C@H](CC(C)C)NC(=O)[C@@H]1CCC(=O)N1)C(=O)N[C@@H](CC(C)C)C(=O)O`, the values for the Ki in test [1] and in test [2] were 2.7 nM and 1.8 nM, respectively.
The like results for `CC[C@@H](C)[C@H](NC(=O)[C@H](Cc1ccc(O)cc1)NC(=O)[C@@H]1C/C=C\C[C@H](N)C(=O)N[C@@H](CCCCN)C(=O)N[C@@H](CCCCN)C(=O)N1)C(=O)O` were, in that order, more than 10000 nM and more than 100000 nM.
For `CC(C)C[C@H](NC(=O)[C@H](Cc1ccc(O)cc1)NC(=O)[C@@H]1CSSC[C@H](N)C(=O)N[C@@H](CCCCN)C(=O)N[C@@H](CCCCN)C(=O)N1)C(=O)O` (H-CKKCYL-OH; disulfide 1-4), the Ki is 1500 nM in test [1] and more than 100000 nM in test [2].
The like results for `CC(C)C[C@H](NC(=O)[C@H](Cc1ccc(O)cc1)NC(=O)[C@H]1C/C=C\C[C@@H](N)C(=O)N[C@@H](CCCCN)C(=O)N[C@@H](CCCCN)C(=O)N1)C(=O)O` were, in that order, 2200 nM and more than 100000 nM.
As to `CC[C@H](C)[C@H](NC(=O)[C@H](Cc1ccc(O)cc1)NC(=O)[C@@H]1CCCN1C(=O)[C@H](CCCNC(=N)N)NC(=O)[C@H](CCCNC(=N)N)NC(=O)[C@@H]1CCCN1C(=O)[C@H](C)NC(=O)[C@H](CC(N)=O)NC(=O)[C@H](CCC(=O)O)NC(=O)[C@H](Cc1ccc(O)cc1)NC(=O)[C@H](CC(C)C)NC(=O)[C@@H]1CCC(=O)N1)C(=O)N[C@@H](CC(C)C)C(=O)O`, the inhibition constant Ki in test [1] is 9.3 nM; in test [2] it was 6 nM.
As to `CC(C)C[C@H](NC(=O)[C@H](Cc1ccc(O)cc1)NC(=O)[C@@H]1CCCC[C@H](N)C(=O)N[C@@H](CCCCN)C(=O)N[C@@H](CCCCN)C(=O)N1)C(=O)O`, the Ki is 90 nM in test [1] and more than 100000 nM in test [2].
The like results for `CC[C@@H](C)[C@H](NC(=O)[C@H](Cc1ccc(O)cc1)NC(=O)[C@@H]1C/C=C\C[C@H](NC(=O)[C@@H](N)CCCCN)C(=O)N[C@@H](CCCCN)C(=O)N1)C(=O)N[C@@H](CC(C)C)C(=O)O` were, in that order, more than 10000 nM and more than 100000 nM.
The like results for `CC(C)C[C@H](NC(=O)[C@H](Cc1ccc(O)cc1)NC(=O)[C@H]1CCCN1C(=O)[C@@H]1C/C=C\C[C@H](N)C(=O)N[C@@H](CCCCN)C(=O)N[C@@H](CCCCN)C(=O)N1)C(=O)O` were, in that order, 200 nM and more than 100000 nM.
For `CC[C@H](C)[C@H](NC(=O)[C@H](Cc1ccc(O)cc1)NC(=O)[C@@H]1CCCN1C(=O)[C@H](CCCNC(=N)N)NC(=O)[C@H](CCCNC(=N)N)NC(=O)[C@@H]1CCCN1C(=O)[C@H](CCCCN)NC(=O)[C@H](C)NC(=O)[C@H](CCC(=O)O)NC(=O)[C@H](Cc1ccc(O)cc1)NC(=O)[C@H](CC(C)C)NC(=O)[C@@H]1CCC(=O)N1)C(=O)N[C@@H](CC(C)C)C(=O)O`, the Ki in test [1] amounted to 8.8 nM; in test [2] it was 2.4 nM.
On to `CC[C@H](C)[C@H](NC(=O)[C@H](C)NC(=O)[C@@H]1CCCN1C(=O)[C@H](CCCN=C(N)N)NC(=O)[C@H](CCCN=C(N)N)NC(=O)[C@@H]1CCCN1C(=O)[C@H](CCCCN)NC(=O)[C@H](CC(N)=O)NC(=O)[C@H](CCC(=O)O)NC(=O)[C@H](Cc1ccc(O)cc1)NC(=O)[C@H](CC(C)C)NC(=O)[C@@H]1CCC(=O)N1)C(=O)N[C@@H](CC(C)C)C(=O)O`, for which the Ki was 590 nM in test [1] and more than 10000 nM in test [2].
For the compound `CC(C)C[C@H](NC(=O)[C@H](Cc1ccc(O)cc1)NC(=O)[C@H]1C/C=C\C[C@H](N)C(=O)N[C@@H](CCCCN)C(=O)N[C@@H](CCCCN)C(=O)N1)C(=O)O`, the Ki in test [1] is 1100 nM; in test [2], more than 100000 nM.
Turning to `CC[C@H](C)[C@H](NC(=O)[C@H](Cc1ccc(O)cc1)NC(=O)[C@@H]1CCCN1C(=O)[C@H](CCCNC(=N)N)NC(=O)[C@H](CCCNC(=N)N)NC(=O)[C@@H]1CCCN1C(=O)[C@H](CCCCN)NC(=O)[C@H](CC(N)=O)NC(=O)[C@H](CCC(=O)O)NC(=O)[C@H](C)NC(=O)[C@H](CC(C)C)NC(=O)[C@@H]1CCC(=O)N1)C(=O)N[C@@H](CC(C)C)C(=O)O`, the inhibition constant Ki in test [1] amounted to 8.7 nM; in test [2], 2.8 nM.
On to `CC[C@@H](C)[C@H](NC(=O)[C@@H]1C/C=C\C[C@H](N)C(=O)N[C@@H](CCCCN)C(=O)N[C@@H](CCCCN)C(=O)N[C@@H](Cc2ccc(O)cc2)C(=O)N1)C(=O)N[C@@H](CC(C)C)C(=O)O`, for which the Ki in test [1] was 1300 nM; in test [2] it was more than 10000 nM.
Regarding `CC[C@H](C)[C@H](NC(=O)[C@H](Cc1ccc(O)cc1)NC(=O)[C@@H]1CCCN1C(=O)[C@H](CCCNC(=N)N)NC(=O)[C@H](CCCNC(=N)N)NC(=O)[C@H](C)NC(=O)[C@H](CCCCN)NC(=O)[C@H](CC(N)=O)NC(=O)[C@H](CCC(=O)O)NC(=O)[C@H](Cc1ccc(O)cc1)NC(=O)[C@H](CC(C)C)NC(=O)[C@@H]1CCC(=O)N1)C(=O)N[C@@H](CC(C)C)C(=O)O`, the Ki in test [1] came to 4.6 nM; in test [2], 2.9 nM.
The like results for `CC(C)C[C@H](NC(=O)[C@H](Cc1ccc(O)cc1)NC(=O)[C@H]1C/C=C\C[C@H](N)C(=O)N[C@@H](CCCCN)C(=O)N[C@@H](CCCCN)C(=O)N2CCC[C@H]2C(=O)N1)C(=O)O` were, in that order, 2500 nM and more than 100000 nM.
Regarding `CC[C@H](C)[C@H](NC(=O)[C@H](Cc1ccc(O)cc1)NC(=O)[C@@H]1CCCN1C(=O)[C@H](CCCNC(=N)N)NC(=O)[C@H](CCCNC(=N)N)NC(=O)[C@@H]1CCCN1C(=O)[C@H](CCCCN)NC(=O)[C@H](CC(N)=O)NC(=O)[C@H](CCC(=O)O)NC(=O)[C@H](Cc1ccc(O)cc1)NC(=O)[C@H](C)NC(=O)[C@@H]1CCC(=O)N1)C(=O)N[C@@H](CC(C)C)C(=O)O`, the inhibition constant Ki is 6.8 nM in test [1] and 2.4 nM in test [2].
The like results for H-RRPYL-OH were, in that order, 391 nM and more than 100000 nM.
On to `CC[C@H](C)[C@H](NC(=O)[C@H](Cc1ccc(O)cc1)NC(=O)[C@@H]1CCCN1C(=O)[C@H](CCCNC(=N)N)NC(=O)[C@@H](N)CCCNC(=N)N)C(=O)O`, for which the Ki was 620 nM in test [1] and more than 100000 nM in test [2].
